Laboratory results as given in ChEMBL document CHEMBL1221365, “Evelynin, a cytotoxic benzoquinone-type Retro-dihydrochalcone from Tacca chantrieri” (J Nat Prod, 2010).
Active and inactive are the calls of the source. The rule behind the calls is not given here.

Tests used:
MDA-MB-435 = test: Cytotoxicity against human MDA-MB-435 cells after 48 hrs by sulforhodamine B assay; assay type: functional, cell-based; conditions: MDA-MB-435, 48 h
MDA-MB-231 = test: Cytotoxicity against human MDA-MB-231 cells after 48 hrs by sulforhodamine B assay; assay type: functional, cell-based; conditions: MDA-MB-231, 48 h
PC-3 = test: Cytotoxicity against human PC3 cells after 48 hrs by sulforhodamine B assay; assay type: functional, cell-based; conditions: PC-3, 48 h
HeLa [1] = test: Cytotoxicity against human HeLa cells after 48 hrs by sulforhodamine B assay; assay type: functional, cell-based
HeLa [2] = test: Inhibition of beta-tubulin assembly in human HeLa cells assessed as effect on microtubule density at 5 uM after 18 hrs by immunofluorescence assay; assay type: cell-based
HeLa [3] = test: Inhibition of beta-tubulin assembly in human HeLa cells assessed as effect on microtubule density up to 40 uM after 18 hrs by immunofluorescence assay; assay type: cell-based

COC1=CC(=O)C(CCC(=O)c2ccc(OC)c(OC)c2)=C(OC)C1=O [EVELYNIN]
IC50 (MDA-MB-435): 4.1 µM | IC50 (MDA-MB-231): 3.9 µM | IC50 (PC-3): 4.7 µM | IC50 (HeLa [1]): 6.3 µM | inhibition (HeLa [2]): inactive | inhibition (HeLa [3]): inactive
